Experimental data from publication PMC12467740, “Synthesis, Characterization, and Screening Anticancer—Antibiofilm Activities of Theophylline Derivatives Containing CF3/OCF3 Moiety” (Biology, 2025).

Tests used:
BEAS-2B cells = assay: MTT cell viability assay, BEAS-2B; assay type: cell-based; details: Homo sapiens, 48 h, mean ± SD (n = 3)
Description: (§1) The anticancer potential of substituted theophylline derivatives was investigated using human lung carcinoma (A549, CCL-185) and cervical cancer (HeLa, CCL-2) cell lines obtained from the American Type Culture Collection (ATCC). To evaluate the selectivity of the tested compounds, cytotoxicity was also assessed in a healthy human bronchial epithelial cell line (BEAS-2B, ATCC CRL-9609). Cells were maintained in DMEM (Euroclone S.p.A., Pero, Italy supplemented with 10% fetal bovine serum (Sigma-Aldrich, St. Louis, MO, USA) and 1% penicillin–streptomycin (1%, Capricorn Scientific GmbH, Ebsdorfergrund, Germany at 37 °C in a humidified atmosphere containing 5% CO2. The theophylline-derived compounds (1a–1e) were dissolved in DMSO to prepare 100 mM stock solutions, which were then diluted with DMEM to obtain final working concentrations ranging from 3.125 µM to 100 µM. To evaluate cell viability, the MTT colorimetric assay was employed. Upon reaching logarithmic growth, A549, HeLa and BEAS-2B cells were seeded at a density of 7000 cells per well in 96-well microplates and allowed to attach for 24 h. Following this, cells were treated with different concentrations of the compounds and incubated for 48 h. After treatment, 100 µL of fresh medium and 20 µL of MTT reagent (5 mg/mL, Bio Basic Inc., Markham, ON, Canada) were added to each well, and cells were incubated for an additional 3 h. The resulting formazan crystals were solubilized with DMSO. Cell viability was calculated as the percentage of absorbance relative to untreated controls, and IC50 values were determined by nonlinear regression analysis using GraphPad Prism software, version 8.0 (GraphPad Software, San Diego, CA, USA. All experiments were performed in at least three independent replicates, and results are reported as mean ± SD. The percentage of inhibition was calculated based on the reduction in metabolic activity of the cells following compound treatment, as assessed by the MTT assay. The absorbance was measured at 570 nm using a microplate reader. The inhibition (%) was calculated using the following formula:Inhibition %=[1 − (Asample − Ablank)/[…]] × 100 To assess the tumor selectivity of the tested theophylline derivatives, the selectivity index (SI) was calculated for each compound. SI is defined as the ratio of the IC50 value in healthy (non-tumorigenic) cells to the IC50 value in cancer cells. In this study, IC50 values were determined for BEAS-2B (non-tumorigenic human bronchial epithelial cells) as a healthy control and for A549 (lung adenocarcinoma) and HeLa (cervical carcinoma) as tumor models. The SI was calculated according to the following equation:SI = [IC50, healthy/IC50, cancer]

Escherichia coli = assay: Well plate biofilm formation assay (crystal violet); assay type: cell-based; details: over the concentration range given per compound (Table 4)
Description: (§2) The well plate assay was utilized to test the effectiveness of compounds in inhibiting biofilms made by microorganisms. An amount of 100 μL of Brucella broth (Remel, Lenexa, KS, USA) containing 1% and 20% glucose (Biolife, Milan, Italy), were dispensed into the test wells. In the next step, 100 μL of compounds ranging from 0.244 to 1000 μg/mL were poured into the wells. […] Then, 0.5 McFarland standard in physiological saline from each microorganism strain were prepared and 20 μL of the prepared suspension was added to the wells. A column of the microplate containing 100 μL Brucella broth served as a negative control and another column of the microplate containing 100 μL Brucella with 20 μL of each microorganism added served as a growth control. As positive controls, ciprofloxacin was applied against bacterial strains at a concentration range of 0.03125-64 μg/mL, and fluconazole was used against Candida albicans at a concentration range of 0.3125-640 μg/mL. Plates were left to incubate at 36.5 °C for a day. The plates were emptied and then washed three times with 300 μL of deionized water. The wells were left to dry for half an hour. The next step was staining with 0.1% (w/v) violet dye ([…]), cleaning three times with deionized water, and drying at room temperature. The crystal violet adhering to the wall of the wells was dissolved with 95% ethanol, and the optical density was measured at 570 nm. The test was run two times, and the mean value was calculated. Biofilm preventing (%) = {(ODb - ODc)/ODb} × 100.

Staphylococcus aureus = assay: as above; assay type: cell-based; details: over the concentration range given per compound (Table 4); 1c and 1e at 1000 µg/mL
Description: as §2

Pseudomonas aeruginosa = assay: as above; assay type: cell-based; details: over the concentration range given per compound (Table 4)
Description: as §2

Candida albicans = assay: as above; assay type: cell-based; details: over the concentration range given per compound (Table 4)
Description: as §2

Enterococcus faecalis = assay: as above; assay type: cell-based; details: over the concentration range given per compound (Table 4)
Description: as §2

HeLa cells = assay: MTT cell viability assay, HeLa; assay type: cell-based, human; details: for IC50: 48 h, MTT, mean ± SD (n = 3); for SI (HeLa): ratio of IC50 in BEAS-2B cells to IC50 in HeLa cells
Description: as §1

A549 cells = assay: MTT cell viability assay, A549; assay type: cell-based, human; details: for IC50: MTT, 48 h, mean ± SD (n = 3); for SI (A549): ratio of IC50 in BEAS-2B cells to IC50 in A549 cells
Description: as §1

Compound | IC50 (BEAS-2B cells) [µM] | Antibiofilm activity Escherichia coli (Escherichia coli) | Antibiofilm activity Staphylococcus aureus (Staphylococcus aureus) | Antibiofilm activity Pseudomonas aeruginosa (Pseudomonas aeruginosa) | Antibiofilm activity Candida albicans (Candida albicans) | Antibiofilm activity Enterococcus faecalis (Enterococcus faecalis) | IC50 (HeLa cells; Homo sapiens, HeLa) [µM] | IC50 (HeLa cells) [µM] | SI (HeLa) (HeLa cells) | IC50 (A549 cells; Homo sapiens, A549, 48 h) [µM] | IC50 (A549 cells) [µM] | SI (A549) (A549 cells)
Cn1c(=O)c2c(ncn2Cc2ccc(OC(F)(F)F)cc2)n(C)c1=O [Compound 1e, 1,3-Dimethyl-7-(4-(trifluoromethoxy)benzyl)-3,7-dihydro-1H-purine-2,6-dione] | 140 ± 3 | did not show antibiofilm activity and – | 13.6% | did not show antibiofilm activity and – | 0.4–23.4% | 5.1–13.9% | 34.5 ± 1.25 | 32.4 ± 0.8 | 4.32 ± 0.11 | 31.4 ± 1 | 29.1 ± 0.5 | 4.81 ± 0.09
Cn1c(=O)c2c(ncn2Cc2ccc(C(F)(F)F)cc2)n(C)c1=O [Compound 1c, 1,3-Dimethyl-7-(4-(trifluoromethyl)benzyl)-3,7-dihydro-1H-purine-2,6-dione] | 90 ± 3 | did not show antibiofilm activity and – | 20.1% | did not show antibiofilm activity and – | 0.9–12.3% | 0.7–16.0% | 14.7 ± 0.7 | 11.5 ± 1.2 | 7.83 ± 0.22 | 13.6 ± 0.9 | 15.7 ± 0.6 | 5.73 ± 0.15
Cn1c(=O)c2c(ncn2Cc2cc(C(F)(F)F)cc(C(F)(F)F)c2)n(C)c1=O [Compound 1d, 1,3-Dimethyl-7-(3,5-bis(trifluoromethyl)benzyl)-3,7-dihydro-1H-purine-2,6-dione] | 150 ± 4 | did not show antibiofilm activity and – | did not show antibiofilm activity and – | did not show antibiofilm activity and – | 1.8–11.8% | 0.7–23.9% | 32.4 ± 0.85 | 34.5 ± 1 | 4.35 ± 0.13 | 29.1 ± 0.5 | 31.4 ± 1 | 4.78 ± 0.14
